Measurements reported in US20220110949A1, “A 19-NOR C3,3-DISUBSTITUTED C21-N-PYRAZOLYL STEROID AND METHODS OF USE THEREOF” (Sage Therapeutics, Inc., priority 2017, published 2022).
Marks after values point to notes of the source that are not given here.

Tests used:
[1] = system: healthy adults, 5-hour phase advance model of insomnia; test: Double-blind, placebo-controlled 3-way crossover study; polysomnography (PSG) and subjective sleep measures in a 5-hour phase advance model of insomnia; format: in vivo, human; set-up: LPS decrease from baseline: dose or concentration left out as unconfirmed; conditions: for LPS (min), Median / NAW, Median / SE (%) (sleep efficiency), Median / TST (min), Median / WASO (min), Median / mDURAW (min), Median: PSG; for decrease in median duration of awakenings from baseline: baseline 9.364, awakenings in minutes; for TST median change (increase) from baseline: baseline median 317.00 minutes; for Sleep efficiency (SE) increase from baseline (median): median at baseline 66.042%; for WASO median change from baseline: median at baseline 134.00 minutes; for Subjective Sleep Quality (sSQ) Median (min, max): scale of 1 (poor) to 10 (excellent)
Description: Example 1. A Randomized, Double-Blind, Multiple Dose, 3-Way Crossover, Exploratory Study to Assess the Pharmacodynamic Effects of Compound 1 Capsules in Healthy Adults Using a 5-Hour Phase Advance Model of Insomnia
Sleep efficiency, defined as the percentage of time in bed spent asleep, as determined by polysomnography (PSG).
This is a double-blind, placebo-controlled, 3-way crossover study (Treatment Periods 1, 2, and 3), followed by an open-label administration of Compound 1 for pharmacokinetic purposes (Treatment Period 4). Subjects are expected to participate in Treatment Periods 1, 2 and 3. These subjects may continue into Treatment Period 4. If necessary, de novo subjects may also be included in Treatment Period 4 (see FIG. 2).
Subjects who meet the sleep diary continuation criteria will return for Visit 2 (Day −7) for a one-night PSG qualification visit. The PSG qualification visit (Visit 2) will begin on Study Day −7 and will continue to Study Day −6. The CRC will determine the median habitual bedtime from their sleep diary. Subjects should arrive at the clinic about 7 hours prior to their habitual bedtime for the one-night PSG qualification visit. Subjects will receive a standard meal and be prepared for overnight PSG recording. Lights out and PSG recording will begin five hours (±30 minutes) earlier than their mean habitual bedtime. Subjects will be required to remain in bed for eight hours, after which time the PSG recording will end, lights will turn on, and subjects will be awakened if asleep. Subjects will complete a Post Sleep Questionnaire about their subjective sleep thirty minutes after the end of the recording. Subjects will be discharged after all morning assessments have been completed at the discretion of the investigator. Subjects will have the option to remain in the clinic (e.g., to sleep at the clinic) until 9 AM.
Treatment Period 1 (Visit 3) begins on Study Day 1 and continues till Study Day 2. Subjects should arrive at the clinic approximately 7 hours prior to their habitual bedtime. Eligibility criteria will be confirmed and subjects will be randomized (1:1:1:1:1:1) to one of six possible treatment sequences (see FIG. 1). Predose assessments will be conducted. Subjects will receive a standard meal and be prepared for overnight PSG recording. Thirty minutes (±15 minutes) prior to lights out, blinded study drug (30 mg Compound 1, 45 mg Compound 1, or placebo) will be administered with food. Lights out and the PSG recording will begin five hours (±30 minutes) prior to their habitual bedtime. Subjects will be required to remain in bed for eight hours, after which time the lights will turn on, and subjects will be awakened if asleep. The PSG recording will end after 5 minutes (±1 minute) of quiet wakefulness is recorded. Subjects should complete a Post Sleep Questionnaire 30 minutes after the end of the recording. Post-PSG safety assessments will be conducted per the Schedule of Assessments. […] Subjects will have the option to remain in the clinic (e.g., to sleep at the clinic) until 9:00 AM.
Treatment Period 2 (Visit 4, Study Days 8 to 9) and Treatment Period 3 (Visit 5, Study Days 15 to 16) will follow similar procedures. Subjects will resume normal sleep patterns and maintain a sleep diary during the washout periods between treatments.
For Treatment Periods 1, 2, and 3, each subject will receive a single dose of study drug (30 mg Compound 1, 45 mg Compound 1, or placebo) on 3 separate visits; each subject will receive each dose level or placebo once. Study subjects who participate in Treatment Period 4 will receive one additional single dose of Compound 1 (30 mg) during one separate study visit.
The Efficacy Set will include all subjects in the Safety Set who have post-dose PSG data. Sleep efficiency will be analyzed using a mixed effects model for repeated measures (MMRM); the model will include treatment, treatment sequence, and period as fixed effects, with adjustment for screening sleep efficiency. […]

healthy adults = test: Safety and tolerability (adverse events) in the study of Example 1; format: in vivo, human; conditions: single dose 30 mg or 45 mg
Description: Frequency, type, severity of adverse events; changes in vital sign assessments, clinical laboratory data, electrocardiogram (ECG) parameters, suicidality assessment via the Columbia Suicide Severity Rating Scale (C-SSRS), sleepiness assessment via Karolinska Sleepiness Scale (KSS), and psychomotor performance assessment via Digit Symbol Substitution Test (DSST)
The safety and tolerability of Compound 1 Capsules will be evaluated by frequency, type, and severity of adverse events; mean changes from baseline in clinical laboratory measures, vital signs, ECGs, suicidal ideation using the C-SSRS, sleepiness using the KSS, and psychomotor performance using the DSST.
Adverse events will be classified by type, incidence, severity, and causality. The overall incidence of adverse events will be summarized by Medical Dictionary for Regulatory Activities (MedDRA) system organ class and preferred term. Data for vital signs, clinical laboratory measurements, ECG, and concomitant medication usage will also be summarized. Suicidality data collected using the C-SSRS at baseline and at each visit during the active Treatment Period will be listed for all subjects. The C-SSRS listings will include behavior type and/or category for suicidal ideation and suicidal behavior of the C-SSRS. Out-of-range safety endpoints may be categorized as low or high, where applicable. […]

C[C@@]1(O)CC[C@H]2[C@H](CC[C@@H]3[C@@H]2CC[C@]2(C)[C@@H](C(=O)Cn4cc(C#N)cn4)CC[C@@H]32)C1 [Compound 1]
Latency to persistent sleep (LPS) (min), Median Difference from Placebo ([1]; 30 mg): -1.50 min | Mean Duration of Awakenings (mDURAW) (min), Median Difference from Placebo ([1]; 30 mg): −3.43** min | Number of Awakenings (NAW), Median Difference from Placebo ([1]; 30 mg): −1.00 | REM Sleep ([1]; 30 mg): 50.15 min | Sleep Efficiency (SE) (%), Median Difference from Placebo ([1]; 30 mg): 11.35* % | Stage N1 ([1]; 30 mg): 20.11 min | Stage N2 ([1]; 30 mg): 258.16 min | Stage N3 (SWS) ([1]; 30 mg): 68.38 min | Subjective Sleep Latency (sSL) (min) Median (min, max) ([1]; 30 mg): 15 (2, 240) min | Subjective TST (sTST) (min) Median (min, max) ([1]; 30 mg): 450.0 (40, 555) min | Subjective WASO (sWASO) (min) Median (min, max) ([1]; 30 mg): 10.0 (0, 120) min | Total sleep time (TST) (min), Median Difference from Placebo ([1]; 30 mg): 54.50* min | Wakefulness after sleep onset (WASO (min), Median Difference from Placebo) ([1]; 30 mg): −22.00* min | effect on REM sleep ([1]; 30 mg and 45 mg): did not disrupt REM sleep | LPS (min), Median ([1]; 30 mg single evening dose): 13.25 min | NAW, Median ([1]; 30 mg single evening dose): 8.00 | SE (%) (sleep efficiency), Median ([1]; 30 mg single evening dose): 84.64% | TST (min), Median ([1]; 30 mg single evening dose): 406.25 min | WASO (min), Median ([1]; 30 mg single evening dose): 55.00 min | mDURAW (min), Median ([1]; 30 mg single evening dose): 4.23 min | decrease in median duration of awakenings from baseline ([1]; 30 mg): 2.629 | TST median change (increase) from baseline ([1]; 30 mg): 85.25 min | Sleep efficiency (SE) increase from baseline (median) ([1]; 30 mg): 17.761% | WASO median change from baseline ([1]; 30 mg): -74.75 min | LPS decrease from median baseline ([1]; 30 mg, median baseline 28.50): 13.25 min | Subjective Sleep Quality (sSQ) Median (min, max) ([1]; 30 mg): 8.0 (5, 10) | Latency to persistent sleep (LPS) (min), Median Difference from Placebo ([1]; 45 mg): -1.00 min | Mean Duration of Awakenings (mDURAW) (min), Median Difference from Placebo ([1]; 45 mg): −1.50+ min | Number of Awakenings (NAW), Median Difference from Placebo ([1]; 45 mg): −2.00 | REM Sleep ([1]; 45 mg): 43.54 min | Sleep Efficiency (SE) (%), Median Difference from Placebo ([1]; 45 mg): 12.61* % | Stage N1 ([1]; 45 mg): 19.58 min | Stage N2 ([1]; 45 mg): 266.79 min | Stage N3 (SWS) ([1]; 45 mg): 74.71 min | Subjective Sleep Latency (sSL) (min) Median (min, max) ([1]; 45 mg): 10 (1, 60) min | Subjective TST (sTST) (min) Median (min, max) ([1]; 45 mg): 465.0 (0, 510) min | Subjective WASO (sWASO) (min) Median (min, max) ([1]; 45 mg): 5.0 (0, 300) min | Total sleep time (TST) (min), Median Difference from Placebo ([1]; 45 mg): 60.50* min | Wakefulness after sleep onset (WASO (min), Median Difference from Placebo) ([1]; 45 mg): −55.50* min | LPS (min), Median ([1]; 45 mg single evening dose): 14.25 min | NAW, Median ([1]; 45 mg single evening dose): 7.00 | SE (%) (sleep efficiency), Median ([1]; 45 mg single evening dose): 87.55% | TST (min), Median ([1]; 45 mg single evening dose): 420.25 min | WASO (min), Median ([1]; 45 mg single evening dose): 42.50 min | mDURAW (min), Median ([1]; 45 mg single evening dose): 3.67 min | decrease in median duration of awakenings from baseline ([1]; 45 mg): 4.261 | TST median change (increase) from baseline ([1]; 45 mg): 96.00 min | Sleep efficiency (SE) increase from baseline (median) ([1]; 45 mg): 20.000% | WASO median change from baseline ([1]; 45 mg): -75.25 min | Subjective Sleep Quality (sSQ) Median (min, max) ([1]; 45 mg): 9.0 (6, 10) | LPS decrease from baseline ([1]; median baseline 28.50): 14.50 min | impact on latency to persistent sleep (LPS) ([1]; single dose capsule of 30 mg or 45 mg in the evening): did not impact | intensity of adverse events (healthy adults): mild | serious or severe adverse events (healthy adults): no serious or severe adverse events were observed
